Values quoted from earlier work in patent US20170100411A1, “CORTICOSTEROID FORMULATIONS FOR MAINTAINING CORTICOSTEROID SYNOVIAL FLUID CONCENTRATIONS” (priority 2015, published 2017).

Assays:
[1] = system: HPA axis; details: BID administration of 20 mg
[2] = target: T1, glucocorticosteroid (GC) receptor (Homo sapiens, UniProt P04150)
T1 sequence (P04150 1-777): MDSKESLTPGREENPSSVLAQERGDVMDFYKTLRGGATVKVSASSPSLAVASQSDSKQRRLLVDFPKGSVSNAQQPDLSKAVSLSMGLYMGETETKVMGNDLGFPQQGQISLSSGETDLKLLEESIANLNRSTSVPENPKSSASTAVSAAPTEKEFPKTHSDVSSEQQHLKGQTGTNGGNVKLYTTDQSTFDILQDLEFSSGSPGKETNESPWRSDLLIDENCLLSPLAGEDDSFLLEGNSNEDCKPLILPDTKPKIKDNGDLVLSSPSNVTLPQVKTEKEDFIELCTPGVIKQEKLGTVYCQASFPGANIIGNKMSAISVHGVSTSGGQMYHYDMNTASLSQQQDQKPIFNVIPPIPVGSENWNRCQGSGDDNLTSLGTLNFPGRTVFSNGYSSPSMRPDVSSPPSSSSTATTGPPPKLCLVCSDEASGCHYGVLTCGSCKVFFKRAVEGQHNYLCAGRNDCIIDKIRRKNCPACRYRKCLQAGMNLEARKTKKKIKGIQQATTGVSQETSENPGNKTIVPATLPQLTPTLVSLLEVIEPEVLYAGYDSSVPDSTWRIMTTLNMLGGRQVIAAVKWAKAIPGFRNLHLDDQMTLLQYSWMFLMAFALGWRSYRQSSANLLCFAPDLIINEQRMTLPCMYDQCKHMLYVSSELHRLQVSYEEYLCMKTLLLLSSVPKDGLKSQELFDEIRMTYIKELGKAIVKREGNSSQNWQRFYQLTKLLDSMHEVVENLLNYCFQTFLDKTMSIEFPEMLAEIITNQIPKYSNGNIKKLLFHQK

suppression of the HPA axis (published CCS %) [1] | potency at the GC receptor relative to other corticosteroids such as TCA [2] | Compound
80-90% |  | Methylprednisone
 | approximately 20 fold | CCC(=O)O[C@]1(C(=O)SCF)[C@H](C)C[C@H]2[C@@H]3C[C@H](F)C4=CC(=O)C=C[C@]4(C)[C@@]3(F)[C@@H](O)C[C@@]21C [fluticasone propionate]
